Reference: PubChem BioAssay (NCI)
Where “and” joins values, the source holds several entries; their conditions need not be identical. Equal values may be shown once.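 Tested at 5 concentrations; 48 h exposure; 96-well plates; endpoints linearly interpolated, else capped at highest concentration. At the GI50, growth is halved. TGI denotes the concentration required for complete inhibition of growth.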

Experiments:
Assay in all cases: DTP human tumour cell line panel, 48 h
SK-MEL-28 melanoma = test system: SK-MEL-28 melanoma
BT-549 breast = test system: BT-549 breast
A498 renal = test system: A498 renal
SNB-75 CNS = test system: SNB-75 CNS
OVCAR-5 ovarian = test system: OVCAR-5 ovarian
OVCAR-8 ovarian = test system: OVCAR-8 ovarian
PC-3 prostate = test system: PC-3 prostate
U251 CNS = test system: U251 CNS
UACC-257 melanoma = test system: UACC-257 melanoma
K-562 leukemia = test system: K-562 leukemia

Compound | GI50 (SK-MEL-28 melanoma) | TGI (SK-MEL-28 melanoma) | TGI (BT-549 breast) | GI50 (A498 renal) | TGI (A498 renal) | GI50 (SNB-75 CNS) | TGI (SNB-75 CNS) | GI50 (OVCAR-5 ovarian) | TGI (OVCAR-5 ovarian) | TGI (OVCAR-8 ovarian) | TGI (PC-3 prostate) | TGI (U251 CNS) | GI50 (UACC-257 melanoma) | TGI (UACC-257 melanoma) | GI50 (K-562 leukemia) | TGI (K-562 leukemia) | GI50 (BT-549 breast) | GI50 (OVCAR-8 ovarian) | GI50 (PC-3 prostate) | GI50 (U251 CNS)
COC(=O)NC1C(C)OC(OC2C/C=C(/C)C3C=CC4C(OC5CC(OC6CC(O)C(OC7CC(O)C(OC)C(C)O7)C(C)O6)C(O)C(C)O5)C(C)CC(C)C4C3(C)/C(O)=C3\C(=O)OC4(CC(C)C(CO)=CC4/C=C\2C)C3=O)CC1(C)[N+](=O)[O-] (centres undefined) | 9 µM | 16.6 µM and 36 µM | 41.4 µM | 9.82 µM | 22.8 µM and 29.8 µM | 11 µM | 33.5 µM and 46.2 µM | 13.4 µM | 30.7 µM and 33.7 µM | 20.7 µM and 32.3 µM | 50 µM | 32.2 µM and 27.6 µM | 8.28 µM | 16.4 µM and 29.4 µM | 3.64 µM | 14.7 µM and 71.8 µM |  |  |  | 
CC(=O)N1N=C2/C(=C/c3ccccc3)CC(C)CC2C1c1ccccc1 (centres undefined) | 18.5 µM | 36.5 µM | 33.1 µM | 16.5 µM | 30.7 µM | 15.6 µM | 30.9 µM | 17.7 µM | 32.2 µM | 50.6 µM | 40.2 µM | 25.4 µM | 16.5 µM | 32.6 µM | 4.29 µM | 20.7 µM | 15.6 µM | 16.1 µM | 10.7 µM | 11.7 µM
CC1=C[C@H]2c3c(c(O)c(O)c4oc5c(C)cccc5c(=O)c34)[C@H](c3cc(O)c(O)c4oc5c(C)cccc5c(=O)c34)[C@H]2C(C)(C)C1 | 1.6 µM | 4.18 µM | 5.04 µM | 1.85 µM | 5.35 µM | 1.4 µM | 6.77 µM | 2.65 µM | 10.6 µM | 17.4 µM | 10.2 µM | 7.09 µM | 2.54 µM | 8.34 µM | 1.67 µM | > 100 µM | 1.9 µM | 1.7 µM | 1.51 µM | 1.23 µM
c1ccc(Cn2cc3c(c2-c2ccccc2)CCc2cnoc2-3)cc1 | 6.58 µM | > 100 µM | 56.1 µM | 7.33 µM | > 100 µM | 3.27 µM | 63.4 µM | 33 µM | > 100 µM | > 100 µM | > 100 µM | > 100 µM | 17.7 µM | > 100 µM | 2.14 µM | 7.31 µM | 6.63 µM | 8.05 µM | 6.13 µM | 3.65 µM
O=C1CC(c2ccc(N3CCOCC3)cc2)(c2ccsc2)NC(=O)C1Sc1ccccc1Cl (centres undefined) | 38.4 µM | > 100 µM | > 100 µM | 10.4 µM | > 100 µM | 54.9 µM | > 100 µM | > 100 µM | > 100 µM | > 100 µM | > 100 µM | > 100 µM | > 100 µM | > 100 µM | 4.69 µM | > 100 µM | 16.7 µM | 7.68 µM | 53.1 µM | 19.5 µM
COc1cccc(C2c3cc4c(cc3OC(C)(O)C2C)OCO4)c1O (centres undefined) |  | > 100 µM | 52.8 µM |  | 18.8 µM |  | 30.8 µM |  | > 100 µM | 40.9 µM | > 100 µM | 21.1 µM |  | 47.1 µM |  | 36.9 µM |  |  |  | 
COc1cc(C(=O)c2ccc3c(c2)OCO3)cc(OC)c1OC | 3.69 µM | > 100 µM | > 100 µM | 1.75 µM | 7.93 µM | 1.39 µM | 5.03 µM | 8.96 µM | > 100 µM | > 100 µM | > 100 µM | > 100 µM | > 100 µM | > 100 µM | 0.482 µM | > 100 µM | 7.09 µM | 5.55 µM | 4.12 µM | 2.81 µM
CCCCCCCCCCCCCC(=O)O[C@H]1CC[C@H](NC(=O)[C@H](OC)[C@H](O)[C@@H](O)[C@H](O)/C=C/C(C)C)C(=O)NC1 |  | 10.8 µM and 21.6 µM | 51.2 µM |  | 51.2 µM and > 100 µM |  | 38.8 µM |  | 51.2 µM and > 100 µM | 20.5 µM and 14.3 µM | 51.2 µM and 12.7 µM | 18.6 µM and 11 µM |  | 27.2 µM and 20.4 µM |  | 11.8 µM and 15.4 µM | 12.8 µM | 0.00181 µM | 0.0152 µM | 
CC[C@H](C)[C@H]1NC(=O)[C@@H](N[C@](C)(O)[C@@H](N)CC(C)C)[C@@H](C)OC(=O)[C@H](Cc2ccc(OC)cc2)N(C)C(=O)[C@@H]2CCCN2C(=O)[C@H](CC(C)C)NC(=O)[C@@H](C)C(=O)[C@H](C(C)C)OC(=O)C[C@@H]1O | 0.0117 µM | 0.0954 µM | 0.406 µM | 0.037 µM | 0.403 µM | 0.0215 µM | 0.436 µM | 0.0204 µM | 0.799 µM | 0.355 µM | 0.208 µM | 0.188 µM | 0.0408 µM | 0.337 µM | 0.0156 µM | 1.8 µM | 0.0195 µM | 0.0161 µM | 0.0164 µM | 0.0119 µM
COc1cc(-c2nc(Nc3nc4ccccc4[nH]3)nc(N)c2C#N)cc(OC)c1OC | 19.1 µM | > 100 µM | 37.1 µM | 0.424 µM | 22 µM | 0.308 µM | 49.9 µM | 27.8 µM | > 86.4 µM | > 100 µM | > 93.3 µM | 72.4 µM | > 100 µM | > 100 µM | 8.45 µM | > 100 µM | 0.857 µM | 28.9 µM | 1.65 µM | 10.8 µM
